Values belong to the compound of their own block, whether it stands above or below them.
Experiment: solvent given as SMILES

Compound: CN(C)c1ccc(-c2c(/C=C3/C=Cc4ccccc4N3Cc3ccccc3)c(=O)c2=O)cc1
fluorescence lifetime (in C1CCCCC1): 2.19 ns
fluorescence lifetime (in Cc1ccccc1): 2.13 ns
fluorescence lifetime (in ClCCl): 0.13 ns

Compound: c1ccc(-c2cc(-c3ccc(N4c5ccccc5C(c5ccccc5)(c5ccccc5)c5ccccc54)cn3)nc(-c3ccccc3)n2)cc1
fluorescence lifetime (in O=P(c1ccccc1)(c1ccccc1)c1ccccc1Oc1ccccc1P(=O)(c1ccccc1)c1ccccc1): 13.3 ns

Compound: C1=Cc2nc1c(-c1cccs1)c1ccc([nH]1)c(-c1cccs1)c1nc(c(-c3cccs3)c3ccc([nH]3)c2-c2cccs2)C=C1
fluorescence lifetime (in CN(C)C=O): 2.09 ns
fluorescence lifetime (in ClCCl): 9.27 ns

Compound: CN1/C(=C/C=C/C2=[N+](CCCCCC(=O)O)c3ccc(S(=O)(=O)[O-])cc3C2(C)C)C(C)(C)c2cc(S(=O)(=O)[O-])ccc21
fluorescence lifetime (in O): 0.3 ns

Compound: COc1ccc(C2=c3sc(-c4ccc(OC)cc4)cc3=[N+]3C2=Nc2c(-c4ccc(OC)cc4)c4sc(-c5ccc(OC)cc5)cc4n2[B-]3(F)F)cc1
fluorescence lifetime (in ClC(Cl)Cl): 1.69 ns

Compound: CCN(CC)c1ccc2nc3c4ccccc4c(=O)cc-3oc2c1
fluorescence lifetime (in C1CCCCC1): 2.76 ns
fluorescence lifetime (in C1COCCO1): 4.5 ns
fluorescence lifetime (in CC1COC(=O)O1): 4.4 ns
fluorescence lifetime (in CC#N): 4.7 ns
fluorescence lifetime (in CC(C)=O): 4.66 ns
fluorescence lifetime (in CC(C)O): 4.1 ns
fluorescence lifetime (in CCCC#N): 4.54 ns
fluorescence lifetime (in CCCCCCCCCCO): 4.19 ns
fluorescence lifetime (in CCCCCO): 3.95 ns
fluorescence lifetime (in CCCCO): 3.91 ns
fluorescence lifetime (in CCCCOCCCC): 4.15 ns
fluorescence lifetime (in CCCO): 3.8 ns
fluorescence lifetime (in CCO): 3.65 ns
fluorescence lifetime (in CCOC(C)=O): 4.53 ns
fluorescence lifetime (in CCOCC): 4.45 ns
fluorescence lifetime (in CN(C)C=O): 4.35 ns
fluorescence lifetime (in CO): 2.8 ns
fluorescence lifetime (in ClC(Cl)(Cl)Cl): 4.1 ns
fluorescence lifetime (in ClCCl): 4.48 ns
fluorescence lifetime (in OC(C(F)(F)F)C(F)(F)F): 0.94 ns
fluorescence lifetime (in OCC(F)(F)F): 1.76 ns
fluorescence lifetime (in OCC(O)CO): 1.95 ns
fluorescence lifetime (in OCCO): 2.5 ns
fluorescence lifetime (in [2H]OC): 4.2 ns
fluorescence lifetime (in [2H]OCC): 4.56 ns

Compound: Cc1ccc(-c2cc(-c3ccccc3Cl)c3c(N)nc(N4CCCC4)c(C#N)c3n2)cc1
fluorescence lifetime (in CC#N): 11.3 ns
fluorescence lifetime (in CC(C)=O): 11.1 ns
fluorescence lifetime (in CC(C)O): 11.3 ns
fluorescence lifetime (in CO): 9.7 ns
fluorescence lifetime (in ClC(Cl)Cl): 13.7 ns
fluorescence lifetime (in ClCCl): 13.7 ns
fluorescence lifetime (in c1ccccc1): 12.8 ns

Compound: CCc1cc(CC)cc(-n2c3ccccc3c3cc4c(cc32)c2ccccc2n4-c2cc(CC)cc(CC)c2)c1
fluorescence lifetime (in ClC(Cl)Cl): 3.69 ns

Compound: CCCCn1c(-c2ccc(-c3nnc(-c4ccccc4)o3)cc2)nc2c3ccccc3c3ccccc3c21
fluorescence lifetime (in ClCCl): 1.84 ns

Compound: Cc1ccc(C2=C3C=CC(/C=C/c4ccccc4)=[N+]3[B-](F)(F)n3c(/C=C/c4ccccc4)ccc32)cc1
fluorescence lifetime (in C1CCCCC1): 4.37 ns
fluorescence lifetime (in C1CCOC1): 4.09 ns
fluorescence lifetime (in C1COCCO1): 4.31 ns
fluorescence lifetime (in CCOC(C)=O): 4.77 ns
fluorescence lifetime (in CO): 4.54 ns
fluorescence lifetime (in Cc1ccccc1): 4.48 ns
fluorescence lifetime (in ClC(Cl)Cl): 4.63 ns

Compound: Cc1ccc(-c2sc(/C(C#N)=C/c3ccc(C#N)cc3)nc2-c2ccc(Cl)cc2)cc1
fluorescence lifetime (in CC#N): 3.02 ns

Compound: CCCCCCCCCCCCOc1cc2cc(N(C)C)ccc2cc1C=C(C#N)C#N
fluorescence lifetime (in CS(C)=O): 2.2 ns

Compound: CCN(CC)c1ccc2c(-c3ccccc3C(=O)O)c3c([o+]c2c1)/C(=C/c1ccc(N(C)C)cc1)CCC3
fluorescence lifetime (in ClCCl): 0.25 ns

Compound: CC[n+]1nc2cc3c4c(c2c2ccccc21)CCCN4CCC3
fluorescence lifetime (in O): 3.6 ns

Compound: CN(C)c1ccc(C#Cc2ccc(C#Cc3ccc(C#Cc4ccccc4C#N)cc3C#N)cc2C#N)cc1
fluorescence lifetime (in C1CCOC1): 1.7 ns
fluorescence lifetime (in CC#N): 1.66 ns
fluorescence lifetime (in CN(C)C=O): 1.86 ns
fluorescence lifetime (in ClC(Cl)Cl): 1.78 ns
fluorescence lifetime (in c1ccccc1): 1.74 ns

Compound: CC(C)(C)c1ccc(-c2nnc(-c3c(-n4c5ccccc5c5ccccc54)c(-n4c5ccccc5c5ccccc54)c(-c4nnc(-c5ccc(C(C)(C)C)cc5)o4)c(-n4c5ccccc5c5ccccc54)c3-n3c4ccccc4c4ccccc43)o2)cc1
fluorescence lifetime (in Cc1ccccc1): 12.7 ns

Compound: CC1(C)C(=O)C=Cc2ccc(N3CCC3)cc21
fluorescence lifetime (in O): 3.83 ns

Compound: CCc1ccc(-c2nc(-c3ccc(-n4c5ccccc5c5ccccc54)cc3)cc(-c3ccc(-n4c5ccccc5c5ccccc54)cc3)n2)cc1
fluorescence lifetime (in C1CCOC1): 3.72 ns
fluorescence lifetime (in CN(C)C=O): 7.1 ns
fluorescence lifetime (in Cc1ccccc1): 2.05 ns
fluorescence lifetime (in ClC(Cl)Cl): 3.57 ns

Compound: N#Cc1ccc(N)cc1
fluorescence lifetime (in C1CCCCC1): 5.6 ns
fluorescence lifetime (in CC#N): 2.6 ns
fluorescence lifetime (in CCCCCC): 3.2 ns
fluorescence lifetime (in CCO): 0.68 ns
fluorescence lifetime (in O): 0.067 ns
fluorescence lifetime (in OCC(F)(F)F): 0.13 ns

Compound: O=C1/C(=C2\Sc3ccc(S(=O)(=O)Cl)cc3C2=O)Sc2ccc(S(=O)(=O)Cl)cc21
fluorescence lifetime (in C1COCCO1): 12 ns
fluorescence lifetime (in CS(C)=O): 0.17 ns

Compound: Cc1ccc(C)cc1
fluorescence lifetime (in C1CCCCC1): 47 ns

Compound: Cc1cc2nc3[nH]c(=O)[nH]c(=O)c3nc2cc1C
fluorescence lifetime (in CC#N): 0.64 ns

Compound: Fc1ccc(-c2ccc(-c3cc(-c4ccccn4)nc(-c4ccccn4)c3)cc2)c(F)c1
fluorescence lifetime (in ClCCl): 1.77 ns

Compound: CCCCCCCCCCCCN1C(=O)c2c(c3ccc4cc(-c5ccc(C(F)(F)F)cc5)c(OC)cc4c3c3c2ccc2cc(-c4ccc(C(F)(F)F)cc4)c(OC)cc23)C1=O
fluorescence lifetime (in ClCCl): 6.39 ns

Compound: O=P1(c2ccccc2)c2ccc(N3c4ccccc4Oc4ccccc43)cc2-c2cc(N3c4ccccc4Oc4ccccc43)ccc21
fluorescence lifetime (in c1ccc2c(c1)c1ccccc1n2-c1ccc(-c2ccc(-n3c4ccccc4c4ccccc43)cc2)cc1): 35.1 ns

Compound: COc1ccc(-c2c(-c3ccc(OC)cc3)c3c4c(cccc4c2-c2ccccc2)C(=O)c2ccccc2-3)cc1
fluorescence lifetime (in CC#N): 2.3 ns
fluorescence lifetime (in CO): 0.8 ns

Compound: CC(=O)Nc1ccc2c3c(cccc13)C(=O)c1ccccc1-2
fluorescence lifetime (in CC#N): 10.3 ns
fluorescence lifetime (in CC(C)=O): 9.7 ns
fluorescence lifetime (in CC(C)O): 9.3 ns
fluorescence lifetime (in CCCCOCCCC): 1.9 ns
fluorescence lifetime (in CCOC(C)=O): 6.6 ns
fluorescence lifetime (in CCOCC): 2.6 ns
fluorescence lifetime (in CO): 8.3 ns
fluorescence lifetime (in Cc1ccccc1): 2.8 ns
fluorescence lifetime (in Clc1ccccc1): 5.9 ns
fluorescence lifetime (in N#Cc1ccccc1): 9.8 ns
fluorescence lifetime (in O=C1CCCCC1): 8.3 ns

Compound: Cn1c(=O)c(/N=N/c2ccc(Nc3ccc([N+](=O)[O-])cc3S(=O)(=O)O)cc2)c(O)c2ccccc21
fluorescence lifetime (in CS(C)=O): 0.03 ns

Compound: Cc1cccc2nc3[nH]c(=O)[nH]c(=O)c3nc12
fluorescence lifetime (in CC#N): 0.9 ns

Compound: CN(C)c1ccc(C#Cc2ccc(-c3nc(C#N)c(C#N)n3C)cc2)cc1
fluorescence lifetime (in C1CCCCC1): 1.2 ns
fluorescence lifetime (in ClC(Cl)Cl): 1.7 ns

Compound: N#Cc1ccc(-c2ccc3c(c2)c2cc(-c4ccc(C#N)cc4)ccc2c2c3nc(-c3ccc(-c4ccc(N(c5ccccc5)c5ccccc5)cc4)cc3)n2-c2ccccc2)cc1
fluorescence lifetime (in C1CCOC1): 1.51 ns
fluorescence lifetime (in CC#N): 2.86 ns
fluorescence lifetime (in CCCCCC): 1.04 ns
fluorescence lifetime (in CCOCC): 1.29 ns

Compound: COc1ccsc1-c1ccc(-c2ccc(-c3sccc3OC)s2)s1
fluorescence lifetime (in CCC(C)C): 0.61 ns

Compound: F[B-]1(F)Oc2ccc(Br)cc2-c2c3c(c4c([n+]21)CCc1ccccc1-4)CCc1ccccc1-3
fluorescence lifetime (in ClCCl): 0.41 ns

Compound: N#Cc1nc2c3ccc(-n4c5ccccc5c5ccccc54)cc3c3cc(-n4c5ccccc5c5ccccc54)ccc3c2nc1C#N
fluorescence lifetime (in O=P(c1ccccc1)(c1ccccc1)c1cccc(-c2cc(-n3c4ccccc4c4ccccc43)cc(-n3c4ccccc4c4ccccc43)c2)n1): 29.5 ns

Compound: COc1cc(OC)c2c(c1)C(=O)c1ccc(OC)cc1-2
fluorescence lifetime (in C1CCCCC1): 4.4 ns
fluorescence lifetime (in CC#N): 1.2 ns

Other lines, results leading:

fluorescence lifetime (in CC#N): 4.24 ns
Compound: N#C/C(=C\c1ccncc1)c1nc(-c2ccc(Cl)cc2)cs1

fluorescence lifetime (in ClCCl): 6.1 ns
Compound: F[B-]1(F)n2c(c3cccc4cccc2c43)=Nc2ccc3ccccc3[n+]21

fluorescence lifetime (in ClCCl): 2.2 ns
Compound: COc1ccc(-c2c3cc4ccccc4cc3c(C#Cc3ccccc3)c3cc4ccccc4cc23)cc1

fluorescence lifetime (in ClCCl): 7.6 ns
Compound: O=[N+]([O-])c1ccc([N+]2=Cc3ccc4ccccc4c3O[B-]2(F)F)cc1

fluorescence lifetime (in ClC(Cl)Cl): 6.53 ns
Compound: CC(C)(C)NC(=O)c1c([Si](C)(C)C)cc2ccc3cccc4ccc1c2c34

fluorescence lifetime (in c1ccccc1): 1.5 ns
Compound: Cc1nc2c(ccc3ccccc32)oc1=O

fluorescence lifetime (in C1CCCCC1): 2.4 ns
Compound: COC(=O)c1ccc(-c2nc3ccc(N(C)C)cc3s2)cc1

fluorescence lifetime (in ClCCl): 18.9 ns
Compound: CCN(CC)c1ccc2c(c1)oc(=O)c1cc3c(-c4ccccc4)nn(C)c3nc12

fluorescence lifetime (in C1CCCCC1): 5.3 ns
fluorescence lifetime (in CC#N): 5.5 ns
fluorescence lifetime (in CCOC(C)=O): 5.1 ns
fluorescence lifetime (in CO): 5 ns
fluorescence lifetime (in CS(C)=O): 5.6 ns
fluorescence lifetime (in ClCCl): 6.8 ns
Compound: Nc1ccc2c3cccc4cccc(c5cccc1c52)c43

fluorescence lifetime (in C1CCCCC1): 5.8 ns
fluorescence lifetime (in CC#N): 0.9 ns
Compound: COc1cc(OC)c2c(c1)C(=O)c1ccccc1-2

fluorescence lifetime (in C1CCCCC1): 23 ns
fluorescence lifetime (in C1CCOC1): 23 ns
fluorescence lifetime (in CC#N): 10.1 ns
Compound: Cn1nc(-c2ccccc2)c2nc3cc(F)ccc3nc21

fluorescence lifetime (in CC#N): 2.05 ns
fluorescence lifetime (in CS(C)=O): 1.09 ns
fluorescence lifetime (in ClCCl): 1.13 ns
Compound: O=[N+]([O-])c1ccc(-c2nc3c(c4c2-c2ccccc2CC4)-c2ccccc2CC3)cc1

fluorescence lifetime (in C1CCCCC1): 0.1 ns
Compound: CN(C)c1ccc2nc(-c3ccccc3)sc2c1Cl

fluorescence lifetime (in ClCCl): 1.74 ns
Compound: CCCCn1c(-c2ccc(-c3nnc(-c4ccc5ccccc5c4)o3)cc2)nc(-c2ccccc2)c1-c1ccccc1

fluorescence lifetime (in CC#N): 3.01 ns
Compound: O=[N+]([O-])c1ccc(/C=C/c2nc3c4ccccc4c4ccccc4c3o2)cc1

fluorescence lifetime (in O): 9.43 ns
Compound: [O-]c1ccc2ccccc2c1

fluorescence lifetime (in C1CCCCC1): 64 ns
Compound: C[Si](C)(C)c1cccc2ccccc12

fluorescence lifetime (in CC#N): 5 ns
Compound: COc1ccc(-n2c(C)ccc2C)cc1

fluorescence lifetime (in ClCCl): 2.5 ns
Compound: COc1ccc2cc(C#N)c(=N)oc2c1

fluorescence lifetime (in CC#N): 1.83 ns
Compound: C(=C\c1nc2c3ccccc3c3ccccc3c2o1)/c1ccccc1

fluorescence lifetime (in ClCCl): 2.2 ns
Compound: COc1ccc(C2=C(C)C3=C(c4c(-c5ccccn5)nc5ccccn45)c4c(C)cc(C)n4[B-](F)(F)[N+]3=C2C)cc1

fluorescence lifetime (in C1CCCCC1): 21.2 ns
fluorescence lifetime (in CC#N): 26.8 ns
fluorescence lifetime (in CO): 25.9 ns
fluorescence lifetime (in ClCCl): 23.2 ns
Compound: COc1c2ccccc2c(OC)c2c1c1cc(Cl)ccc1n2C

fluorescence lifetime (in CS(C)=O): 0.06 ns
Compound: CC(=O)Nc1ccc(S(=O)(=O)O)c(/N=N/c2c(O)c3ccccc3n(C)c2=O)c1
